*1 amine or outer side, *2 acyl side, *3 side chain or, on linkers, in order; H or OH if unused. Where a SMILES comes first, the peptide text is derived from it. Bridges are numbered along the chain shown (N, C = ends). [ ]: non-standard residue; d: D form. Leu(3R-O(AcLeu(3R-OH))) = CC(=O)N[C@H](C(=O)O[C@H](C(C)C)[C@H](N)C(=O)O)[C@H](O)C(C)C; X1 = CC(C)[C@@H](O[*:3])[C@H](N[*:1])C(=O)[*:2]; NMeT = CN[C@H](C(=O)O)[C@@H](C)O; dPhLac = O=C(O)[C@H](O)Cc1ccccc1; NMeA = CN[C@@H](C)C(=O)O; NMeDha = C=C(NC)C(=O)O
Tests used:
[1] = target: T1, Guanine nucleotide-binding protein subunit alpha-11 (Homo sapiens, UniProt P29992); assay: Inhibition of recombinant human Gq/11 coupled N-terminal 3His-tagged M1 receptor expressed in CHOK1 cells assessed as reduction in carbachol-induced IP1 accumulation pretreated for 1 hr followed by carbachol addition and subsequent incubation for 1 hr at 37 degC measured after 15 mins at room temperature by HTRF assay; type: cell-based
T1 sequence (P29992 whole entry): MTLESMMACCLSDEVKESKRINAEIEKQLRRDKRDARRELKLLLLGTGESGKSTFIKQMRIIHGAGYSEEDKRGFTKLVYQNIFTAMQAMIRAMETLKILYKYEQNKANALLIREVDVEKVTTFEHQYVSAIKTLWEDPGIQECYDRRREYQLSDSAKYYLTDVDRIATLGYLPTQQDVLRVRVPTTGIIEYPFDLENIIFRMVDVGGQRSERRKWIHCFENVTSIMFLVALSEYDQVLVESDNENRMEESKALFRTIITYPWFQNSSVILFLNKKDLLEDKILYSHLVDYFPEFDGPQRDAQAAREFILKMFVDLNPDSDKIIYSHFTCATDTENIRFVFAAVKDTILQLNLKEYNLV

[2] = target: Guanine nucleotide-binding protein G(s) subunit alpha isoforms XLas (Homo sapiens, UniProt Q5JWF2); assay: Inhibition of Gs coupled adrenergic beta2 receptor in HEK293 cells assessed as reduction in isoproterenol-induced cAMP production pretreated for 1 hr followed by isoproterenol addition and measured after 30 mins by FRET assay; type: cell-based
Chain of Guanine nucleotide-binding protein G(s) subunit alpha isoforms XLas (Q5JWF2 whole entry, canonical isoform): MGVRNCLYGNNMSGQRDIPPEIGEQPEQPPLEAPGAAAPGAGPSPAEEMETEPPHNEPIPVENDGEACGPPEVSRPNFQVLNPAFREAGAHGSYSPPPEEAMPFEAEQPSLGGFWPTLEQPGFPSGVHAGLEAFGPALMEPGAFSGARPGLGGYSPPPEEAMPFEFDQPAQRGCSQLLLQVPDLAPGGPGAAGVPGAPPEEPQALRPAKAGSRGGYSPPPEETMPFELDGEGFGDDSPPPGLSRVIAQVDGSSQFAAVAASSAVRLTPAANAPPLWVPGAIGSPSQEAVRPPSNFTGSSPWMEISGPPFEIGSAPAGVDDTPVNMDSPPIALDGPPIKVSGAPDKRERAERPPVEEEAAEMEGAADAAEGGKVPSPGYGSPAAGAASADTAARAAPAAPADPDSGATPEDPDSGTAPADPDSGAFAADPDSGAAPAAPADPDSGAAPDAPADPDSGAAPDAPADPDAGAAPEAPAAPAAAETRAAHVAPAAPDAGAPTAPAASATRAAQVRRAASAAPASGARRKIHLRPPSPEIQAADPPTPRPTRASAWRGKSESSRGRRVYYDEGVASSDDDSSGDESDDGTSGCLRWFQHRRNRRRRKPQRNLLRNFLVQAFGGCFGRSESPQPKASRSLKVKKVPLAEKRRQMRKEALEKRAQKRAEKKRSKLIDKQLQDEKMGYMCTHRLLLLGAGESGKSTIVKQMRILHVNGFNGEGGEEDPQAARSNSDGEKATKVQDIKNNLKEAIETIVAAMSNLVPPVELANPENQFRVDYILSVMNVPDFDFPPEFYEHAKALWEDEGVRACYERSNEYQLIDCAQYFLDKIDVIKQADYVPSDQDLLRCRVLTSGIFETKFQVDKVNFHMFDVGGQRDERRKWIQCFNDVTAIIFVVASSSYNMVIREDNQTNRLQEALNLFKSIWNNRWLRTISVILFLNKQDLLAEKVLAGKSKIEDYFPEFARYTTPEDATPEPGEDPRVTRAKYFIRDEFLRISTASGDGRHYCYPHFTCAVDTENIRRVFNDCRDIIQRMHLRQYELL

SMILES | IC50 [1] [µM] | IC50 [2] [µM]
C=C1C(=O)N[C@@H](C)C(=O)N(C)[C@@H](C)C(=O)N[C@@H]([C@H](OC(=O)[C@@H](NC(=O)CCCCC)[C@H](O)C(C)C)C(C)C)C(=O)N(C)[C@@H]([C@@H](C)OC)C(=O)O[C@H](C)[C@H](NC(C)=O)C(=O)O[C@H](Cc2ccccc2)C(=O)N1C | 0.88 | > 100
CO[C@H](C)[C@H]1C(=O)O[C@H](C)[C@H](NC(C)=O)C(=O)O[C@H](CC(C)C)C(=O)N(C)[C@H](CO)C(=O)N[C@@H](C)C(=O)N(C)[C@@H](C)C(=O)N[C@@H]([C@H](OC(=O)[C@@H](NC(C)=O)[C@H](O)C(C)C)C(C)C)C(=O)N1C | > 50 | > 100
C=C1C(=O)N[C@@H](C)C(=O)N(C)[C@@H](C)C(=O)N[C@@H]([C@H](OC(=O)[C@@H](NC(C)=O)[C@H](O)C(C)C)C(C)C)C(=O)N(C)[C@@H]([C@@H](C)OC)C(=O)OC[C@H](NC(C)=O)C(=O)O[C@H](Cc2ccccc2)C(=O)N1C | 1.89 | > 100
C=C1C(=O)N[C@@H](C)C(=O)N(C)[C@@H](C)C(=O)N[C@@H]([C@H](OC(=O)[C@@H](NC(C)=O)[C@H](O)C(C)C)C(C)C)C(=O)N(C)[C@@H]([C@@H](C)OC)C(=O)O[C@@H](C)[C@H](NC(C)=O)C(=O)O[C@H](Cc2ccccc2)C(=O)N1C | > 50 | > 100
C=C1C(=O)N[C@@H](C)C(=O)N(C)[C@@H](C)C(=O)N[C@@H]([C@H](OC(=O)[C@@H](NC(C)=O)[C@H](O)C(C)C)C(C)C)C(=O)N(C)[C@@H]([C@@H](C)OC)C(=O)O[C@H](C)[C@H](NC(C)=O)C(=O)O[C@H](CC(C)C)C(=O)N1C | 3.69 | > 100
C=C1C(=O)N[C@@H](C)C(=O)N(C)[C@@H](C)C(=O)N[C@@H]([C@H](OC(=O)[C@@H](NC(C)=O)[C@H](O)C(C)C)C(C)C)C(=O)N(C)[C@@H]([C@@H](C)OC)C(=O)O[C@H](C)[C@H](NC(C)=O)C(=O)O[C@H](Cc2ccccc2)C(=O)N1C | 0.15 | > 100
C=C1C(=O)N[C@H](C)C(=O)N(C)[C@@H](C)C(=O)N[C@@H]([C@H](OC(=O)[C@@H](NC(C)=O)[C@H](O)C(C)C)C(C)C)C(=O)N(C)[C@@H]([C@@H](C)OC)C(=O)O[C@H](C)[C@H](NC(C)=O)C(=O)O[C@H](Cc2ccccc2)C(=O)N1C | 36.6 | 
C=C1C(=O)N[C@@H](C)C(=O)N(C)[C@@H](C)C(=O)N[C@@H]([C@H](OC(=O)[C@@H](NC(=O)c2ccccc2)[C@H](O)C(C)C)C(C)C)C(=O)N(C)[C@@H]([C@@H](C)OC)C(=O)O[C@H](C)[C@H](NC(C)=O)C(=O)O[C@H](Cc2ccccc2)C(=O)N1C | 2.34 | > 100
C=C1C(=O)N[C@@H](C)C(=O)N(C)[C@@H](C)C(=O)N[C@@H]([C@H](OC(=O)[C@@H](NC(C)=O)[C@H](O)C(C)C)C(C)C)C(=O)N(C)[C@@H]([C@@H](C)OC)C(=O)O[C@H](C(C)C)[C@H](NC(C)=O)C(=O)O[C@H](Cc2ccccc2)C(=O)N1C (Ac-[X1][dPhLac][NMeDha]A[NMeA][Leu(3R-O(AcLeu(3R-OH)))][NMeT](Me); ester 1-C) | 0.31 | > 100

From ChEMBL document CHEMBL4270579, “Structure-activity relationship and conformational studies of the natural product cyclic depsipeptides YM-254890 and FR900359” (Eur J Med Chem, 2018)
